Target: Gastrin/cholecystokinin type B receptor (Cavia porcellus)
Assay: Displacement of [125I]CCK-OP radioligand from Cholecystokinin type B receptor of guinea pig cortical membranes

Structure (SMILES) | IC50 [µM]
O=C(N[C@@H]1C(=O)N(c2ccccc2)C[C@@H]1C(=O)O)c1ccc2ccccc2c1 [(3S,4S)-4-[(Naphthalene-2-carbonyl)-amino]-5-oxo-1-phenyl-pyrrolidine-3-carboxylic acid] | > 10
O=C(N[C@H]1C(=O)N(c2ccccc2)C[C@@H]1C(=O)O)c1ccc2ccccc2c1 [(3S,4R)-4-[(Naphthalene-2-carbonyl)-amino]-5-oxo-1-phenyl-pyrrolidine-3-carboxylic acid] | > 10
O=C(N[C@@H]1C(=O)N(c2ccccc2F)C[C@@H]1C(=O)O)c1cnc2ccccc2c1 [(3S,4S)-1-(2-Fluoro-phenyl)-5-oxo-4-[(quinoline-3-carbonyl)-amino]-pyrrolidine-3-carboxylic acid] | > 10
O=C(N[C@@H]1C(=O)N(c2ccccc2F)C[C@@H]1C(=O)O)c1ccc2ccccc2c1 [(3S,4S)-1-(2-Fluoro-phenyl)-4-[(naphthalene-2-carbonyl)-amino]-5-oxo-pyrrolidine-3-carboxylic acid] | > 10

Source: BindingDB's records for doi:10.1016/S0960-894X(00)80224-3 (1992)
